The source of these data is patent publication US4368325A, “Processes for preparing 3-cephem compounds” (Fujisawa Pharmaceutical Co., Ltd., priority 1980, dated 1983).

In brackets after ≈: the same amount, converted by molar mass.

Holding throughout (assay): In vitro antibacterial activity, two-fold agar-plate dilution method
Holding throughout (assay type): cell-based

One test concerns Serratia marcescens 35. To be noted: HI-agar, 37° C., 20 hours, 100-fold dilution of overnight culture, read-out: minimal inhibitory concentration (MIC). As for the experimental part:
(§1) In vitro antibacterial activity was determined by the two-fold agar-plate dilution method as described below. One loopful of the 100-fold dilution of an overnight culture of each test strain in Trypticasesoy broth was streaked on heart infusion agar (HI-agar) containing graded concentrations of the test compound and incubated at 37° C. for 20 hours. The minimal inhibitory concentration (MIC) was expressed in μg/ml.

Test [1] relates to Pseudomonus aeruginosa NCTC-10490. To be noted: HI-agar, 37° C., 20 hours, 100-fold dilution of overnight culture, read-out: minimal inhibitory concentration (MIC). As for the experimental part: as §1
The test system of the next test is Klebsiella pneumoniae 20. To be noted: HI-agar, 37° C., 20 hours, 100-fold dilution of overnight culture, read-out: minimal inhibitory concentration (MIC). As to the method: as §1
A further test relates to Proteus mirabilis 18. The settings on record: HI-agar, 37° C., 20 hours, 100-fold dilution of overnight culture, read-out: minimal inhibitory concentration (MIC). As for the experimental part:
as §1

The subject of test [2] is Staphylococcus aureus 209P JC-1. To be noted: HI-agar, 37° C., 20 hours, 100-fold dilution of overnight culture, read-out: minimal inhibitory concentration (MIC). As for the experimental part:
as §1

Test [3] relates to Escherichia coli. NIHJ JC-2. To be noted: NIHJJC2, HI-agar, 37° C., 20 hours, 100-fold dilution of overnight culture, read-out: minimal inhibitory concentration (MIC). As to the method:
as §1

The subject of test [4] is Proteus vulgaris IAM-1025. The settings on record: IAM1025, HI-agar, 37° C., 20 hours, 100-fold dilution of overnight culture, read-out: minimal inhibitory concentration (MIC). As to the method:
as §1

Consider `CO/N=C(\C(=O)NC1C(=O)N2C(C(=O)O)=CCSC12)c1csc(N)n1` (stereo not drawn) [7-[2-(2-aminothiazol-4-yl)-2-methoxyiminoacetamido]-3-cephem-4-carboxylic acid (syn isomer)], for which the MIC was 1.56 µg/mL (≈ 4.07 µM) with Serratia marcescens 35; 0.39 µg/mL (≈ 1.02 µM) in test [1]; ≤ 0.025 µg/mL with Klebsiella pneumoniae 20; ≤ 0.025 µg/mL in the test on Proteus mirabilis 18; 6.25 µg/mL (≈ 16.3 µM) in test [2]; ≤ 0.025 µg/mL in test [3]. For the same molecule, in test [4], the MIC was ≤ 0.025 µg/mL.
